Test results as given in publication PMC5451161 (Tetrahedron, asymmetry, 2016).

Biological target: NDM-1 (New Delhi metallo-β-Lactamase) (Klebsiella pneumoniae, UniProt C7C422)
Format: biochemical

Chain of NDM-1 (New Delhi metallo-β-Lactamase) (C7C422 29-270 limits assumed): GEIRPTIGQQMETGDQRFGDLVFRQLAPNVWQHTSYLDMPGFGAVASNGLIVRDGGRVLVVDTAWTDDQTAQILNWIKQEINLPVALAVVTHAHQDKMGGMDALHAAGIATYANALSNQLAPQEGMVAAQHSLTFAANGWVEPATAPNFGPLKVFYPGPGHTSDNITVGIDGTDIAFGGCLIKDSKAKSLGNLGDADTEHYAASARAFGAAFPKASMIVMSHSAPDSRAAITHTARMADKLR

## COC(=O)[C@@H]1COC2CSC(CS)N21 (stereo partly shown) [4f]
  Ki: 1.6 ± 0.6 µM
